Laboratory results: paper PMC5593639, “NSC30049 inhibits Chk1 pathway in 5-FU-resistant CRC bulk and stem cell populations” (Oncotarget, 2017)

Legend:
HCT-116 cells = experiment: Cell survival (MTT assay), HCT-116; assay type: cell-based, human; settings: Homo sapiens, HCT-116, 48 h
Experimental: (§1) The survival of cells was determined by MTT (3-(4,5-Dimethylthiazol-2yl-)-2,5-diphenyl tetrazolium bromide) assay (ATCC, Manassas, VA, USA). In principle, the viable cell number is directly proportional to the purple formazan color of the reduced MTT dye, which can be quantitatively measured by spectrophotometry. Briefly, 1,500 cells were plated in quadruplets in 96-well flat-bottom tissue culture plates. After treatment with compounds for certain periods as described in respective figure legends, 10 μl of MTT reagent was added to each well and incubated at 37°C for 4 h to allow the formation of purple color crystals of formazan. In total, 100 μl of detergent solution was added to each well, and the reaction mixture was incubated in dark for 2–4 h at room temperature. The developed color density was then measured spectrophotometrically at 570 nm using the POLARstar Omega micro-plate reader (BMG Labtech, Inc., Cary, NC, USA).

[1] = test system: HCoEpiC normal colonic epithelial cell line; experiment: Cell survival (MTT assay), HCoEpiC; assay type: cell-based; settings: Homo sapiens, drug alone, 48 h
Experimental: as §1

LoVo cells = experiment: Cell survival (MTT assay), LoVo; assay type: cell-based; settings: Homo sapiens, drug alone, 48 h
Experimental: as §1

[2] = test system: FOLFOX-resistant-HT29 cells; experiment: Cell survival (MTT assay), FOLFOX-resistant-HT29; assay type: cell-based; settings: Homo sapiens, FOLFOX-resistant HT-29, 48 h
Experimental: In some experiments, 5-FU, leucovorin and oxaliplatin (FOLFOX)-resistant-HCT-116 and FOLFOX-resistant-HT29 cells were used. These cells were obtained from Dr. Adhip P. Majumdar (John D. Dingell VA Medical Center, Detroit, MI). These cells were generated by exposure to clinically relevant doses and schedules. The exposing schedule was for 12 cycles; each cycle lasted for one week. Briefly, the cells were first exposed to FOLFOX (25 μM 5-FU and 0.625 μM oxaliplatin) for 72 hours. The surviving cells were then cultured in normal medium without the drugs for 4 to 5 days. This cycle was repeated 12 times. The surviving cells were then split and exposed to higher doses of FOLFOX (50 μM 5-FU + 1.25 μM oxaliplatin or 100 μM 5-FU + 2.5 μM oxaliplatin) for 2 to 3 days per week for approximately 4 weeks. […]
The survival of cells was determined by MTT (3-(4,5-Dimethylthiazol-2yl-)-2,5-diphenyl tetrazolium bromide) assay (ATCC, Manassas, VA, USA). In principle, the viable cell number is directly proportional to the purple formazan color of the reduced MTT dye, which can be quantitatively measured by spectrophotometry. […] The developed color density was then measured spectrophotometrically at 570 nm using the POLARstar Omega micro-plate reader (BMG Labtech, Inc., Cary, NC, USA).

CA2 CRC stem cell line = experiment: Spheroid (sphere) formation assay; assay type: cell-based; settings: Homo sapiens; drug alone, seventh day
Experimental: Live CA2 cells (100) were seeded in 384-well ultra-low attachment plates. Next, day cells were treated with different concentrations of NSC49L and 5-FU either alone or in combination. Cells were incubated for 7 days and the number of spheroids were counted in control and treated groups under an Olympus inverted microscope with a 10× magnification.

HT29 cells = experiment: Cell cycle profile by FACS; assay type: cell-based, human; settings: 2 mM HU 24 h
Experimental: For determining the cell cycle profile, cells were plated in 60 mm tissue culture dishes and grown until 60% confluence. […] After treatment, cells were harvested at different time intervals, washed with ice-cold PBS and processed for FACS analysis as described previously. The ranges for G0/G1, S, and G2/M phase arrested and sub-G1 apoptotic cells were established on the basis of the corresponding DNA content of the histograms. At minimum, 10,000 cells were counted from each sample.

[3] = test system: γH2AX(S139P)-foci in CA2 cells; experiment: γH2AX(S139P)-foci IHC staining, CA2; assay type: cell-based, human; settings: 24 h
[4] = Pharmacokinetic analysis in CD1 mice; assay type: in vivo, male CD1 mice; settings: 20 mg/kg body weight, IP, plasma
Experimental: Pharmacokinetic analysis of NSC30049 in CD1 mice was determined by Pharmaron, Inc. (Louisville, KY, USA). Mice were injected intraperitoneally (IP) with NSC49L (20 mg/kg body weight) and approximately 0.04 ml blood was collected at 0, 5, 15 and 30 min, 1, 2, 4, 8 and 24 h time point. Blood of each sample was transferred into plastic micro-centrifuge tubes containing 2 μl of Heparin (1,000 IU). Samples were stored in a freezer at −75 ± 15°C prior to analysis. Concentrations of NSC49L in the plasma samples was analyzed using a LC-MS/MS method. WinNonlin® (Phoenix®, version 6.1) software was used for pharmacokinetic calculations. The following pharmacokinetic parameters were calculated from the plasma concentration versus time data: T1/2, Cmax, AUClast, AUCinf, AUCextra%, Number of Points for Regression. The pharmacokinetic data is described using mean ± standard deviation (SD) and n = 3.

[5] = test system: human-derived CRC stem cell tumors; experiment: Patient-derived tumor xenograft (PDTX) of CRC stem cell tumors; assay type: in vivo, female SCID mice; settings: 50 mg/kg body weight NSC49L every day, 30 days
Experimental: With the pharmacokinetics analysis and MTD data in hand, we determined the efficacy of NSC49L and 5-FU alone and in combination for the growth of human-derived CRC stem cell tumors in vivo. CRC stem cells were isolated and characterized from the freshly resected human CRC tumor. One thousands of these CRC stem cells were injected subcutaneously into the right flank of the four 5-week old female SCID mice. After 20 days the first generation tumors (F0) of approximately 2,000 mm^3 in size were harvested. They were divided into four equal pieces and implanted under the skin of the female SCID mice for the growth of second generation tumors (F1) for testing the drug efficacy studies. We divided the F1 tumor bearing mice into four groups and treated them every day subcutaneously with drugs as follows: i) PBS control, (ii) 50 mg/kg body weight NSC49L, (iii) 20 mg/kg body weight 5-FU, and iv) 50 and 20 mg/kg body weight NSC49L and 5-FU, respectively, for 30 days. The treatment with drugs began after 10 days of tumor growth. The body weight and tumor volumes were recorded twice a weak. The experiment was terminated on the 32nd day.

[6] = HU withdrawn, then 20 μM NSC49L 8 h
[7] = then 20 μM NSC49L additional 8 h in presence of HU

## ClC/C=C/C[N+]12CN3CN(CN(C3)C1)C2 [NSC49L]
HCT-116 cells; MTT assay, Figure 1B, three experiments
  IC50: 3.9 µM
HCT-116 cells; drug alone, MTT, Table 1, four estimations
  IC50: 2.8 ± 0.5 µM
[1]
  IC50: 31.9 ± 0.9 µM
LoVo cells
  IC50: 4.2 ± 0.1 µM
[2]
  IC50: 3.1 µM
CA2 CRC stem cell line
  IC50: 4.8 µM
HT29 cells; [6]
  Cell cycle distribution G2/M: 26.1%
  Cell cycle distribution S (S-phase arrest): 50.6%
HT29 cells; [7]
  Cell cycle distribution S (S-phase arrest): 39.7%
  Entry of G2/M-phase: complete blockage to the entry of G2/M-phase
[3]; NSC49L alone
  γH2AX(S139P)-foci: increased
[3]; NSC49L in combination with 5-FU
  γH2AX(S139P)-foci: further increased
[4]
  AUC_%Extrap_obs: 0.187 ± 293%
[4]; male, CD1, mouse
  AUC(0-inf): 1310 ± 89 ng·h/mL
  AUC(0-t): 1310 ± 86 ng·h/mL
  Cmax: 5530 ng/mL
  Tmax: 4.98 min
[4]; male, CD1, mouse, n = 3
  half-life: 14 ± 5.88 min
[4]; male, CD1, mouse, read-out: AUC (bioavailability)
  AUC: 1310 ± 86 ng·h/mL
[5]
  Growth of CRC stem cell tumors: significant growth inhibition
